Tested on: 926638-142-R-J1-PDC complex spheroid viability
Assay: Anticancer human tumor 926638-142-R-J1-PDC patient-derived endometrial carcinoma cell line growth inhibition [POLQ]
Settings: for IC50: curve of first compound; for viability, T/C: stronger effect = lower value
Procedure: Multicellular complex tumor spheroid response to Polymerase (POL) inhibitors (novobiocin, ART-558, RP6685) in combination with a variety of drugs and investigational agents in selected tumor cell lines
The POL inhibitors (novobiocin, ART-558, and RP6685) were evaluated both individually and in combination with standard of care and investigational anticancer small molecules within a complex spheroid model of solid tumors. . Complex spheroids include a stromal component modeled by human endothelial cells (HUVEC) and fibroblasts modeled by human mesenchymal stem cells (MSCs). The concentration ranges selected for each drug and investigational agent were based upon clinically achievable concentrations if the clinical Cmax of the agent was known.
Compounds. The drugs and investigational agents: novobiocin (NSC847541), ART-558 (NSC835418), RP-6685 (NSC848927), peposertib (NSC802822), ceralasertib (NSC780249), elimusertib (NSC800525), camonsertib (NSC841442), AZD-1390 (NSC803789), olaparib (NSC753686), talazoparib (NSC767125), rucaparib (NSC756644), sotorasib (NSC818433), MRTX-1133 (NSC836407), SN-38 (NSC673596), topotecan (NSC609699), epotoside (NSC141540), doxorubicin (NSC123127), gemcitabine (NSC613327), 5-fluorouracil (NSC19893), paclitaxel (NSC125973), vemurafenib (NSC761431), MSA-2 (NSC828583), SN-011 (NSC837082), adavosertib (NSC754352), prexasertib (NSC758257), carboplatin (NSC241240) and oxaliplatin (NSC266046), were obtained from the National Cancer Institute (NCI) Developmental Therapeutics Program Chemical Repository (21). The FDA-approved anticancer drug set is available from the Developmental Therapeutics Program at https://dtp.cancer.gov/organization/dscb/obtaining/. […] The stock solutions were prepared in dimethyl sulfoxide (DMSO, Sigma-Aldrich, St. Louis, MO, cat. D2650), except for the platinum compounds which were prepared in saline (Quality Biological, Gaithersburg, MD, cat. 114-055-101), at 800-fold the tested concentration and stored at -70 degrees C prior to their use. All drugs and investigational agents were tested over a range starting from a high concentration at or near the clinical Cmax and decreasing in half-log increments. If the clinical Cmax for an agent had not been determined, the highest concentration tested was 10 microM, except for SN-38, which was tested at a high concentration of 1 microM.
Cell Culture. All cells were maintained in an incubator at 37 degrees C and 5% CO2 with 95% humidity. The PDC lines were cultured according to standard operating procedures established by the NCI PDMR (https://pdmr.cancer.gov). Table 3 of the manuscript, lists the cell lines along with the number of the three cell types plated to form the mct-spheroids and media for tumor cell growth. After thawing, all PDC lines, except 997537-175-T-J1-PDC and 415267-285-R-J2-PDC, were cultured in Matrigel-coated flasks prepared with a working solution of 1X Ham's F-12 nutrient mix, without supplementation (Thermo Fisher Scientific, cat. 11765054), 100 U/mL penicillin-streptomycin (Thermo Fisher Scientific, cat. 15140122), and 2.5% Matrigel (Corning Inc., Corning, NY, cat. 354248) for the first three passages. The two PDC lines 997537-175-T-J1-PDC and 415267-285-R-J2-PDC were cultured on uncoated flasks. The 857933-349-R-J2-PDC line was cultured in 6C/Colon 1B media containing advanced DMEM/F-12 (Thermo Fisher Scientific, cat. 12634028), 10 mM HEPES (Thermo Fisher Scientific, cat. 15630080), 1X GlutaMAX supplement (Thermo Fisher Scientific, cat. 35050061), 0.1 mg/mL primocin (InvivoGen, San Diego, CA, cat. ant-pm-2), 10% defined fetal bovine serum, heat inactivated (HyClone Laboratories Inc., Logan, UT, cat. SH30070.03HI), 50% L-WRN conditioned media (ATCC, cat. CRL-3276), 1.25 mM N-Acetyl-L-cysteine (Sigma-Aldrich, cat. A9165), 10 mM nicotinamide (Sigma-Aldrich, cat. N0636), 1X B-27 supplement (Thermo Fisher Scientific, cat. 17504044), 1X N-2 supplement (Thermo Fisher Scientific, cat. […]
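Note: spheroids exposed to drugs for one week before readout.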
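Throughout, for viability, T/C: percent viability relative to DMSO vehicle control wells set as 100%.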

Nc1ccn(C2OC(CO)C(O)C2(F)F)c(=O)n1 (configuration not stated) + COC1C(OC(N)=O)C(O)C(Oc2ccc3c(O)c(NC(=O)c4ccc(O)c(CC=C(C)C)c4)c(=O)oc3c2C)OC1(C)C
IC50 (second compound 0.0316 µM): 1010 nM
IC50 (second compound 0.1 µM): 1600 nM
IC50 (second compound 0.316 µM): 470 nM
IC50 (second compound 1 µM): 924 nM
IC50 (second compound 3.16 µM): 874 nM
IC50 (second compound 10 µM): 463 nM
viability, T/C (second compound 0.0316 µM, first compound 0.0316 µM): 81.7%
viability, T/C (second compound 0.0316 µM, first compound 0.1 µM): 70.2%
viability, T/C (second compound 0.0316 µM, first compound 0.316 µM): 49.4%
viability, T/C (second compound 0.0316 µM, first compound 1 µM): 59.7%
viability, T/C (second compound 0.0316 µM, first compound 3.16 µM): 41.4%
viability, T/C (second compound 0.0316 µM, first compound 10 µM): 26.2%
viability, T/C (second compound 0.1 µM, first compound 0.0316 µM): 86.2%
viability, T/C (second compound 0.1 µM, first compound 0.1 µM): 67.3%
viability, T/C (second compound 0.1 µM, first compound 0.316 µM): 61.6%
viability, T/C (second compound 0.1 µM, first compound 1 µM): 55%
viability, T/C (second compound 0.1 µM, first compound 3.16 µM): 50.3%
viability, T/C (second compound 0.1 µM, first compound 10 µM): 26.3%
viability, T/C (second compound 0.316 µM, first compound 0.0316 µM): 75.8%
viability, T/C (second compound 0.316 µM, first compound 0.1 µM): 61.4%
viability, T/C (second compound 0.316 µM, first compound 0.316 µM): 47%
viability, T/C (second compound 0.316 µM, first compound 1 µM): 52.4%
viability, T/C (second compound 0.316 µM, first compound 3.16 µM): 36.8%
viability, T/C (second compound 0.316 µM, first compound 10 µM): 33.1%
viability, T/C (second compound 1 µM, first compound 0.0316 µM): 81.3%
viability, T/C (second compound 1 µM, first compound 0.1 µM): 70.7%
viability, T/C (second compound 1 µM, first compound 0.316 µM): 56.6%
viability, T/C (second compound 1 µM, first compound 1 µM): 45.6%
viability, T/C (second compound 1 µM, first compound 3.16 µM): 48.7%
viability, T/C (second compound 1 µM, first compound 10 µM): 28.2%
viability, T/C (second compound 3.16 µM, first compound 0.0316 µM): 79%
viability, T/C (second compound 3.16 µM, first compound 0.1 µM): 62.8%
viability, T/C (second compound 3.16 µM, first compound 0.316 µM): 55.8%
viability, T/C (second compound 3.16 µM, first compound 1 µM): 51.4%
viability, T/C (second compound 3.16 µM, first compound 3.16 µM): 45.7%
viability, T/C (second compound 3.16 µM, first compound 10 µM): 25%
viability, T/C (second compound 10 µM, first compound 0.0316 µM): 83.3%
viability, T/C (second compound 10 µM, first compound 0.1 µM): 73.8%
viability, T/C (second compound 10 µM, first compound 0.316 µM): 41.7%
viability, T/C (second compound 10 µM, first compound 1 µM): 46.9%
viability, T/C (second compound 10 µM, first compound 3.16 µM): 47.1%
viability, T/C (second compound 10 µM, first compound 10 µM): 28.2%
